Laboratory results reported in US20240009321A1, “IMMUNOGENIC NANOVESICLES FOR CANCER IMMUNOTHERAPY” (Arizona Board of Regents on Behalf of the University of …, priority 2020, published 2024).

How the values were obtained:
[1] = Lago optical imaging of in vivo tumor delivery of Cy5.5-labeled Camptothesome-4; parameters: species or system BALB/c mice; details: SC CT26 tumor mice, entire monitored period (24 h)
Protocol: M ice were imaged at 0 h (prior to drug administration), and 2.5, 8, 12, and 24 h post IV injection (excitation=675 nm; emission=710 nm). At 24 h, tumors, heart, liver, spleen, lung, and kidneys were imaged using Lago optical imager. For tumor penetration investigation, tumors were frozen in an acetone/dry ice mixture prior to immunofluorescence examination. The tumor blood vessels were stained with a primary anti-CD31 (a.k.a. PECAM-1) antibody (Abcam, ab28364, 1:50), followed by an Alexa Fluor 488-conjugated secondary antibody (Abcam, ab150073, 1:400). DAPI was used to localize the cellular nuclei. Tumor tissues were cut into […] slide section by University of Arizona TACMASR and subject to the confocal laser scanning microscopy using Leica SP5-II confocal microscope (Buffalo Grove, IL) at University of Arizona Cancer Center Imaging Core.

[2] = test system: MC38 tumor; assay: Therapeutic efficacy in SC MC38 tumor bearing mice; type: in vivo, C57BL/6 mice; details: ˜300 mm^3, single IV at eq. 20 mg CPT/kg and 6.7 mg DOX-IND/kg
Protocol: In FIG. 8I-8J, 2×10^5 cells/mouse in 100 μL of serum free medium were SC injected to C57BL/6 (n=6). […] Mice survival rate was closely monitored every day.
Mouse weight was monitored every 3 days, and mice survival was monitored every day.
In FIG. 16E-161, 4×10^5 cells/mouse in 100 μL of serum free medium were SC injected to C57BU6 (n=6). Mice were IV injected once with various treatments at equivalent (eq.) 20 mg CPT/kg and 6.7 DOX-IND mg/kg when tumors grew to ˜300 mm^3. α-CD8 (BioXCell, clone 53-6.7) was IP injected at 200 μg/mouse/3 days from day 17. On day 23, mice were euthanized, and tumor tissues were isolated and equally cut into 3 pieces; one part for IHC staining for CD8, Foxp3, Calreticulin, IFN-γ, Perforin, Granzyme B, CC-3) by University of Arizona TACMASR; another two parts for Western blotting of P-S6K and RT-PCR for IL-6, respectively. Mouse weight was monitored every 3 days, and mice survival was monitored every day.
In FIG. 16K-16N, 2×10^5 cells/mouse were SC injected to C57BL/6 (n=5). When tumors reached ˜400 mm^3, mice received a single IV injection with various treatments at eq. […] Mouse weight was monitored every 3-4 days, and mice survival was monitored every day.

[3] = Maximum tolerated dose (MTD) and systemic toxicity in healthy mice; type: in vivo, BALB/c mice; details: for Animal Death / Weight Loss: n=3, 14 days
Protocol: Changes in body weight and survival of mice were followed every 1-2 days for two weeks. […] On day 14 post drug injection, blood was withdrawn by cardiac puncture and major organs (e.g., heart, liver, and kidneys) were collected. Blood was collected in lithium heparin tubes (BD Microtainer™) followed by centrifuging at 2,000×g for 10 minutes in a refrigerated centrifuge. The supernatant (serum) was sent to University of Arizona University Animal Care Pathology Services Core for a series of serum chemistry analysis. The whole blood in dipotassium EDTA tube (BD Microtainer™) were used for leukocytes, erythrocytes, and thrombocytes analysis. Mice organs from MTD dose and vehicle control groups were placed in a 4% paraformaldehyde solution for 24 h and then sent to Tissue Acquisition and Cellular/Molecular Analysis Shared Resource (TACMASR) at University of Arizona Cancer Center for histopathological analysis.

[4] = Pharmacokinetics in orthotopic CT26-Luc tumor-bearing mice; details: for AUC(0-inf) / AUC(0-t) / MRT / half-life: BALB/c, mouse, plasma, iv; for AUMC / CL / V / Vss: single IV, nanovesicles 6.7/20 mg DOX-IND/CPT/kg
Protocol: The various pharmacokinetics parameters were assessed by one-compartmental model using PKSolver software.

[5] = test system: CT26 tumor; assay: Therapeutic efficacy in SC CT26 tumor bearing mice; type: in vivo, BALB/c mice; details: single IV on day 9 (˜50 mm^3); free CPT 5 mg/kg, Camptothesomes and Onivyde 20 mg CPT or irinotecan/kg
Protocol: 1×10^5 CT26 cells in 100 μL of serum free medium were SC injected in the right flank of the BALB/c mice (n=5 or 6). […] To determine the effect on survival rate in each group (n=6). Kaplan-Meier plots were used to express animal survival rate. For the efficacy study in FIG. 8D-8H, mice were euthanized on day 21; tumors were collected and soaked in 4% paraformaldehyde overnight prior to the immune phenotypic [CD8, Granzyme B, Perforin, Cleaved caspase-3 (CC-3), and IFN-γ] analysis using IHC staining by University of Arizona TACMASR.

[6] = Blood kinetics of CPT in SC CT26 tumor bearing mice
Protocol: Following a single IV injection via tail vein of free CPT (5 mg CPT/kg, MTD) and different Camptothesomes (20 mg CPT/kg) to SC CT26 tumor bearing mice (n=3, ˜300 mm^3), blood was withdrawn at 0.083, 0.333, 1, 2.5, 8, 12 and 24 h and plasma (via plasma tube, BD Microtainer™) was collected and digested in methanol (90 μL methanol/10 μL serum) for HPLC analysis to measure the released CPT and SM-derived CPT conjugates. 24 h after drug IV administration, tumor tissues and major organs (heart, liver, spleen, lung, and kidneys) were collected, weighed, and then homogenized in acidified methanol (0.075 M HCl, 900 μL/100 mg tissues) followed by drug content determination using an established HPLC method. […] Mice were sacrificed at 2.5 h and 72 h post drug administration, the drug content in the collected tumor tissues and organs were processed, and analyzed as described above.

[7] = Blood kinetics of CPT, free CPT 5 mg/kg
[8] = BALB/c, mouse, plasma, iv, 5 mg/kg
[9] = single IV, free CPT 5 mg/kg, Camptothesomes 20 mg CPT/kg, SC CT26 tumor mice, n=3
[10] = Blood kinetics of IND, IND 1.7 mg/kg

Question: Which “fluorescence signal in tumors” value [1] does the source give for “1,2-dioleoyl-sn-glycero-3-phosphoethanolamine-N-(cyanine 5.5) [Free DSPE-Cy5.5]” here?
Answer: no observable signal in tumors

Question: Which “tumor growth in large MC38 tumors” value [2] does the source give for `COc1cccc2c1C(=O)c1c(O)c3c(c(O)c1C2=O)C[C@@](O)(/C(CO)=N\NC(=O)OCCSSCCOC(=O)C(N)Cc1cn(C)c2ccccc12)C[C@@H]3O[C@H]1C[C@H](N)[C@H](O)[C@H](C)O1` (stereo in doubt) [DOX-IND, 2-((2-((1-methyl-D-tryptophyl)oxy)ethyl)disulfanyl)ethyl (Z)-2-(1-((2S,4S)-4-(((2R,4S, 5S, 6S)-4-amino-5-hydroxy-6-methyltetrahydro-2H-pyran-2-yl)oxy)-2,5,12-trihydroxy-7-methoxy-6,11-dioxo-1,2,3,4,6,11-hexahydrotetracen-2-yl)-2-hydroxyethylidene)hydrazine-1-carboxylate] here?
Answer: did not show significant tumor growth inhibition

Question: Which “Animal Death” value ([3]; Dose 5 mg/kg, single IV) does the source give for `CC[C@@]1(O)C(=O)OCc2c1cc1n(c2=O)Cc2cc3ccccc3nc2-1` [Free CPT, (S)-(+)-camptothecin] here?
Answer: 0/3

Question: And the “Weight Loss” value ([3]; Dose 5 mg/kg, single IV)?
Answer: 1.82%

Question: What about the “Animal Death” value ([3]; Dose 7.5 mg/kg, single IV) of the same compound?
Answer: 1/3

Question: And the “Animal Death” value ([3]; Dose 10 mg/kg, single IV)?
Answer: 1/3

Question: What about the “Animal Death” value ([3]; Dose 12.5 mg/kg, single IV) of the same compound?
Answer: 0/3

Question: What about the “Weight Loss” value ([3]; Dose 12.5 mg/kg, single IV) of the same compound?
Answer: 25.35%

Question: What about the “systemic toxicity (serum chemistry, blood counts, H&E of organs)” value ([3]; at MTD, day 14 post IV injection) of the same compound?
Answer: severe systemic toxicities

Question: And the MTD at 14 days ([3]; mouse, in vivo, single IV, healthy BALB/c mice, 14 days, no death, not more than 15% weight loss)?
Answer: 5 mg/kg

Question: And the AUC(0-inf) ([4]; 5 mg/kg)?
Answer: 9480 ± 880 ng·h/mL

Question: And the AUC(0-t) ([4]; 5 mg/kg)?
Answer: 9470 ± 870 ng·h/mL

Question: And the MRT ([4]; 5 mg/kg)?
Answer: 51.6 ± 2.4 min

Question: And the half-life ([4]; 5 mg/kg)?
Answer: 3.6 ± 0.6 min

Question: And the AUMC [4, 7]?
Answer: 8.12 ± 0.38 μg/mL*h2

Question: What about the CL [4, 7] of the same compound?
Answer: 10.62 ± 1.00 μg/(μg/mL)/h

Question: And the V [4, 7]?
Answer: 0.77 ± 0.23 μg/(μg/mL)

Question: And the Vss [4, 7]?
Answer: 9.16 ± 1.30 μg/(μg/mL)

Question: What about the tumor growth [5] of the same compound?
Answer: significant tumor reduction

Question: What about the half-life ([6]; BALB/c, mouse, in vivo, iv, 5 mg/kg) of the same compound?
Answer: 4.2 ± 0.6 min

Question: What about the AUC(0-inf) [6, 8] of the same compound?
Answer: 11200 ± 1520 ng·h/mL

Question: What about the AUC(0-t) [6, 8] of the same compound?
Answer: 11000 ± 1550 ng·h/mL

Question: And the MRT [6, 8]?
Answer: 5.85 ± 0.41 h

Question: What about the “elimination from blood / circulation half-life” value ([6]; SC CT26 tumor mice, single IV) of the same compound?
Answer: rapidly eliminated from blood

Question: What about the AUMC [6, 9] of the same compound?
Answer: 65.42 ± 6.99 μg/mL · h^2

Question: What about the CL [6, 9] of the same compound?
Answer: 36.06 ± 5.00 µg/µg/mL/h

Question: And the V [6, 9]?
Answer: 26.44 ± 0.27 µg/µg/mL

Question: And the Vss [6, 9]?
Answer: 211.68 ± 38.45 µg/µg/mL

Question: Which AUC(0-inf) ([4]; 1.7 mg/kg) does the source give for `Cn1cc(C[C@@H](N)C(=O)O)c2ccccc21` [Free IND, 1-methyl-D-tryptophan] here?
Answer: 5670 ± 540 ng·h/mL

Question: And the AUC(0-t) ([4]; 1.7 mg/kg)?
Answer: 5660 ± 530 ng·h/mL

Question: And the MRT ([4]; 1.7 mg/kg)?
Answer: 24.6 ± 5.4 min

Question: And the half-life ([4]; 1.7 mg/kg)?
Answer: 4.8 ± 1.2 min

Question: What about the AUMC [4, 10] of the same compound?
Answer: 2.38 ± 0.71 μg/mL*h2

Question: What about the CL [4, 10] of the same compound?
Answer: 12.08 ± 1.17 μg/(μg/mL)/h

Question: And the V [4, 10]?
Answer: 4.94 ± 0.63 μg/(μg/mL)

Question: And the Vss [4, 10]?
Answer: 4.95 ± 0.63 μg/(μg/mL)
